In patent publication US4675403A, “3-Aminoalkyl derivatives of 5,5-disubstituted hydantoins with psychotropic activity” (American Home Products Corporation, priority 1985, dated 1987):
Structures can show the parent of a compound that is named as a salt. Where two headings read alike, the source gives them in different places.

Columns and labels:
[1] = target: limbic D-2 dopamine receptor (Rattus norvegicus, UniProt P61169); experiment: inhibition of limbic D-2 dopamine receptor binding (3H-spiroperidol); parameters: species or system rats; conditions: for inhibition at 10 µM: read-out: Limbic D-2 Binding, inhibition at 10 μM
limbic D-2 dopamine receptor, sequence (P61169 whole entry): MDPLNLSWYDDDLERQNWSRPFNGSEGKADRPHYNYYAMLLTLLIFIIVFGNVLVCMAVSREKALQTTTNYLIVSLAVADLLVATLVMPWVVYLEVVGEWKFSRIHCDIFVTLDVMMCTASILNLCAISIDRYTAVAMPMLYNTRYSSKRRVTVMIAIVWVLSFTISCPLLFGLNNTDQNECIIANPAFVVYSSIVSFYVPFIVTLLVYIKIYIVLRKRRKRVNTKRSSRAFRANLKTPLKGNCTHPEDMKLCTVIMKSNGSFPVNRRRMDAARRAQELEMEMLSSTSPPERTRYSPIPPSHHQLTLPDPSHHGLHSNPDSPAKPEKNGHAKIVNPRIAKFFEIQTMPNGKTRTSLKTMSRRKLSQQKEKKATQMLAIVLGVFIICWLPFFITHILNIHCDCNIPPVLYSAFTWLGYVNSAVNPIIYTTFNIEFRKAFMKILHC
Method: The test is carried out as follows:

[2] = system: conditioned avoidance (shelf-jump response); experiment: conditioned avoidance (shelf-jump response) test; conditions: Rattus norvegicus, ip, read-out: AB50
Method: This test is carried out as follows:
Male CD rats (Charles River) maintained at approximately 400-450 gm body weight are used. […] A moveable wall, controlled by a motor, determines whether the rat has access to the shelf at any time during the experiment. The experimental chamber also contains a house light and sonalert. A steel grid floor in the main chamber is wired for presentation of electric shock. Each trial consists of a fifteen-second warning tone (conditioned stimulus), continuing for an additional fifteen seconds accompanied by electric shock, (unconditioned stimulus). A response (jumping onto the exposed shelf of the upper chamber) occurring during the initial fifteen-second warning tone is considered an avoidance response, while a response occurring during shock delivery is considered an escape response. […]
The following experimental parameters are recorded by computer: (1) the number of avoidance responses, (2) the number of escape responses, and (3) the number of trials in which no response occurred.
Response counts are summed over all subjects at a given dose. […] This number is expressed as a percentage of the total trials. Control performance is arbitrarily assigned a value of 100% for avoidance and the dose calculated to produce a 50% block in avoidance responding (AB50) is obtained from a dose-effect regression line fitted by the method of least squares.

[3] = rat limbic tissue, 0.3 nM 3H-spiroperidol

Row | SMILES | ED50 [2] | inhibition at 10 µM [1] | inhibition at 1 µM [1, 3] | other results
1 | O=C1NC2(CC3CCC2C3)C(=O)N1CCCCN1CCN(c2ncccn2)CC1 (centres unmarked) [Example 2, 1-[4-[4-(2-Pyrimidinyl)-1-piperazinyl]butyl]spiro[bicyclo[2.2.1]heptane-2,4'-imidazolidine]-2',5'-dione, dihydrochloride] | 33.3 mg/kg | – | – | Ki ([1]; rat limbic tissue, 0.3 nM 3H-spiroperidol, Table 1): 2000 nM
2 | Cl.Cl.O=C1CNC(=O)N1CCCCN1CCN(c2ncccn2)CC1 [Example 3, 3-[4-[4-(2-Pyrimidinyl)-1-piperazinyl]butyl]-2,4-imidazolidinedione, dihydrochloride] | 45.8 mg/kg | 24% | – | –
3 | O=C1NC2(CCCCC2)C(=O)N1CCCCN1CCN(c2ncccn2)CC1 [Example 4, 5,5-Pentamethylene-3-[4-[4-(2-pyrimidinyl)-4-piperazinyl]butyl]-2,4-imidazolidinedione, dihydrochloride] | – | – | 10% | –
4 | CC1(C)NC(=O)N(CCCCN2CCN(c3ncccn3)CC2)C1=O [Example 5, 5,5-Dimethyl-3-[4-[4-(2-pyrimidinyl)-4-piperazinyl]butyl]-2,4-imidazolidinedione, hydrochloride] | – | – | 5% | –
5 | O=C1NC2(CCCC2)C(=O)N1CCCCN1CCN(c2ncccn2)CC1 [Example 7, 5,5-Tetramethylene-3-[4-[4-(2-pyrimidinyl)-4-piperazinyl]butyl]-2,4-imidazolidinedione, dihydrochloride] | – | – | – | inhibition at 10 µM ([1]; 10 μM, rat limbic tissue, 0.3 nM 3H-spiroperidol): 51%
6 | O=C1NC2(CCCC2)C(=O)N1CCCCN1CCC(O)(c2ccc(Cl)cc2)CC1 [Example 8, dihydrochloride] | – | 40% | – | –
